Structures can show the parent of a compound that is named as a salt.
Target: T1, intracellular domain of human Tie2 (GST fusion protein) (Homo sapiens, UniProt Q02763)
T1 construct: intracellular domain of human Tie2 (amino acids 776-1124); made in house; host or cells: Baculovirus-infected insect cells (Hi5)
Test: Tie2 kinase assay (Tie2-TR-FRET)
Type: biochemical
Settings: ATP concentration 1 mM, in some cases means of several independent determinations
How it was run: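 GST fusion of human Tie2 intracellular domain (aa 776-1124, Hi5-expressed), ~30 ng/ml, pre-incubated 15 min with compound, then 1 mM ATP and 1 μM biotinylated peptide, 60 min at 22 °C, pH 7. TR-FRET (Eu anti-phosphotyrosine/streptavidin-XL665, 665/620 nm ratio). […] 20 μM–0.073 nM in duplicate; IC50 by 4-parameter fit.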

T1 sequence (Q02763 776-1124): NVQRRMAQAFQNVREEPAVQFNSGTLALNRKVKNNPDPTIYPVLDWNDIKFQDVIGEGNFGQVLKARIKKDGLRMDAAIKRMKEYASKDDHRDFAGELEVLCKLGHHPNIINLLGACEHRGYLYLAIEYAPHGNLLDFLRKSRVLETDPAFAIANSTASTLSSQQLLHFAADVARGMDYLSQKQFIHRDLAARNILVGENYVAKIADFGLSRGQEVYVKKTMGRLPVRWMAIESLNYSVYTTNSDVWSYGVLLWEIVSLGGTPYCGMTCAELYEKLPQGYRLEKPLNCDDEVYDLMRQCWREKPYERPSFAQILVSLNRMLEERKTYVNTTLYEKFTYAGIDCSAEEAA

How did the IC50 turn out when `Cc1cc(F)c(NC(=O)c2cc(C#N)cc(C(C)(C)C)c2)cc1-n1ccn2nc(-c3cccnc3)cc12` [Example 118, 3-tert-Butyl-5-cyano-N-{2-fluoro-4-methyl-5-[6-(pyridin-3-yl)-1H-imidazo[1,2-b]pyrazol-1-yl]-phenyl}benzamide] was run?
Its IC50 is 0.4 nM.

How did the IC50 turn out when `Cc1ccc(NC(=O)c2cccc(S(F)(F)(F)(F)F)c2)c(C)c1-n1ccn2nc(-c3cccnc3)cc12` [Example 119, N-{2,4-Dimethyl-3-[6-(pyridin-3-yl)-1H-imidazo[1,2-b]pyrazol-1-yl]phenyl}-3-(pentafluoro-λ^6-sulphanyl)benzamide] was run?
Its IC50 is 110 nM.

Which IC50 does the source give for `Cc1ccc(NC(=O)c2cc(Br)cc(S(F)(F)(F)(F)F)c2)c(C)c1-n1ccn2nc(-c3cccnc3)cc12` [Example 120, 3-Bromo-N-{2,4-dimethyl-3-[6-(pyridin-3-yl)-1H-imidazo[1,2-b]pyrazol-1-yl]phenyl}-5-(pentafluoro-λ^6-sulphanyl)benzamide] here?
The IC50 was 37 nM.

For `Cc1ccc(NC(=O)c2cc(C#N)cc(S(F)(F)(F)(F)F)c2)c(C)c1-n1ccn2nc(-c3cccnc3)cc12` [Example 121, 3-Cyano-N-{2,4-dimethyl-3-[6-(pyridin-3-yl)-1H-imidazo[1,2-b]pyrazol-1-yl]phenyl}-5-(pentafluoro-λ^6-sulphanyl)benzamide], which IC50 is on record?
The IC50 was 18 nM.

For `Cc1ccc(NC(=O)c2cc(C(F)(F)F)cc(S(N)(=O)=O)c2)cc1-n1ccn2nc(-c3cccnc3)cc12` [Example 122, N-{4-Methyl-3-[6-(pyridin-3-yl)-1H-imidazo[1,2-b]pyrazol-1-yl]phenyl}-3-sulphamoyl-5-(trifluoromethyl)benzamide], which IC50 is on record?
The IC50 was 3.9 nM.

`Cc1ccc(NC(=O)c2cccc(C(C)(C)C)c2)cc1-n1ccn2nc(-c3cccnc3)cc12` [Example 123, 3-tert-Butyl-N-{4-methyl-3-[6-(pyridin-3-yl)-1H-imidazo[1,2-b]pyrazol-1-yl]phenyl}benzamide] was tested. Which IC50 did it give?
The IC50 was 56 nM.

Which IC50 does the source give for `Cc1cc(C(=O)Nc2ccc(C)c(-n3ccn4nc(-c5cccnc5)cc34)c2)cc(S(N)(=O)=O)c1` [Example 124, 3-Methyl-N-{4-methyl-3-[6-(pyridin-3-yl)-1H-imidazo[1,2-b]pyrazol-1-yl]phenyl}-5-sulphamoyl-benzamide] here?
The IC50 was 297 nM.

For `Cc1ccc(NC(=O)c2cc(C(C)(C)C)ccn2)cc1-n1ccn2nc(-c3cccnc3)cc12` [Example 125, 4-tert-Butyl-N-{4-methyl-3-[6-(pyridin-3-yl)-1H-imidazo[1,2-b]pyrazol-1-yl]phenyl}pyridine-2-carboxamide], which IC50 is on record?
The IC50 was 280 nM.

With `Cc1cc(C)c(-n2ccn3nc(-c4cccnc4)cc23)cc1NC(=O)c1cccc(SC(F)(F)F)c1` [Example 126, N-{2,4-Dimethyl-5-[6-(pyridin-3-yl)-1H-imidazo[1,2-b]pyrazol-1-yl]phenyl}-3-[(trifluoromethyl)-sulphanyl]benzamide] as the molecule, how does the IC50 read?
The IC50 was 1.2 nM.

`Cc1cc(C)c(-n2ccn3nc(-c4cccnc4)cc23)cc1NC(=O)c1cccc(OC(F)(F)F)c1` [Example 127, N-{2,4-Dimethyl-5-[6-(pyridin-3-yl)-1H-imidazo[1,2-b]pyrazol-1-yl]phenyl}-3-(trifluoromethoxy)benzamide] was tested. Which IC50 did it give?
The IC50 was 1.4 nM.

`Cc1cc(C)c(-n2ccn3nc(-c4cccnc4)cc23)cc1NC(=O)c1cccc(OC(F)F)c1` [Example 128, N-{2,4-Dimethyl-5-[6-(pyridin-3-yl)-1H-imidazo[1,2-b]pyrazol-1-yl]phenyl}-3-(difluoromethoxy)-benzamide] was tested. Which IC50 did it give?
Its IC50 is 43 nM.

For `Cc1cc(C)c(-n2ccn3nc(-c4cccnc4)cc23)cc1NC(=O)c1cccc(OC(F)(F)C(F)F)c1` [Example 129, N-{2,4-Dimethyl-5-[6-(pyridin-3-yl)-1H-imidazo[1,2-b]pyrazol-1-yl]phenyl}-3-(1,1,2,2-tetra-fluoroethoxy)benzamide], which IC50 is on record?
Its IC50 is 3.2 nM.

For `Cc1cc(C)c(-n2ccn3nc(-c4cccnc4)cc23)cc1NC(=O)c1cccc(OCC(F)(F)F)c1` [Example 130, N-{2,4-Dimethyl-5-[6-(pyridin-3-yl)-1H-imidazo[1,2-b]pyrazol-1-yl]phenyl}-3-(2,2,2-trifluoroethoxy)benzamide], which IC50 is on record?
The IC50 was 24 nM.

`COc1cccc(C(=O)Nc2cc(-n3ccn4nc(-c5cccnc5)cc34)c(C)cc2C)c1` [Example 131, N-{2,4-Dimethyl-5-[6-(pyridin-3-yl)-1H-imidazo[1,2-b]pyrazol-1-yl]phenyl}-3-methoxybenzamide] was tested. Which IC50 did it give?
Its IC50 is 252 nM.

How did the IC50 turn out when `Cc1cc(C)c(-n2ccn3nc(-c4cccnc4)cc23)cc1NC(=O)c1cccc(OC(C)C)c1` [Example 132, N-{2,4-Dimethyl-5-[6-(pyridin-3-yl)-1H-imidazo[1,2-b]pyrazol-1-yl]phenyl}-3-isopropoxybenzamide] was run?
Its IC50 is 4.6 nM.

With `Cc1cc(C)c(-n2ccn3nc(-c4cccnc4)cc23)cc1NC(=O)c1cccc(OCC(C)C)c1` [Example 133, N-{2,4-Dimethyl-5-[6-(pyridin-3-yl)-1H-imidazo[1,2-b]pyrazol-1-yl]phenyl}-3-isobutoxybenzamide] as the molecule, how does the IC50 read?
The IC50 was 53 nM.

For `Cc1cc(C)c(-n2ccn3nc(-c4cccnc4)cc23)cc1NC(=O)c1cccc(OC(C)(C)C)c1` [Example 134, 3-tert-Butoxy-N-{2,4-dimethyl-5-[6-(pyridin-3-yl)-1H-imidazo[1,2-b]pyrazol-1-yl]phenyl}-benzamide], which IC50 is on record?
The IC50 was 55 nM.

`CCOCCOc1cccc(C(=O)Nc2cc(-n3ccn4nc(-c5cccnc5)cc34)c(C)cc2C)c1` [Example 135, N-{2,4-Dimethyl-5-[6-(pyridin-3-yl)-1H-imidazo[1,2-b]pyrazol-1-yl]phenyl}-3-(2-ethoxyethoxy)-benzamide] was tested. Which IC50 did it give?
Its IC50 is 607 nM.

`Cc1cc(C)c(-n2ccn3nc(-c4cccnc4)cc23)cc1NC(=O)c1cccc(OCCO)c1` [Example 136, N-{2,4-Dimethyl-5-[6-(pyridin-3-yl)-1H-imidazo[1,2-b]pyrazol-1-yl]phenyl}-3-(2-hydroxyethoxy)benzamide] was tested. Which IC50 did it give?
Its IC50 is 687 nM.

`Cc1cc(C)c(-n2ccn3nc(-c4cccnc4)cc23)cc1NC(=O)c1cccc(OCCN(C)C)c1` [Example 137, 3-[2-(Dimethylamino)ethoxy]-N-{2,4-dimethyl-5-[6-(pyridin-3-yl)-1H-imidazo[1,2-b]pyrazol-1-yl]phenyl}benzamide] was tested. Which IC50 did it give?
Its IC50 is 409 nM.

For `Cc1cc(C)c(-n2ccn3nc(-c4cccnc4)cc23)cc1NC(=O)c1cccc(N2CCC(F)(F)CC2)c1` [Example 138, 3-(4,4-Difluoropiperidin-1-yl)-N-{2,4-dimethyl-5-[6-(pyridin-3-yl)-1H-imidazo[1,2-b]pyrazol-1-yl]phenyl}benzamide], which IC50 is on record?
The IC50 was 65 nM.

With `Cc1cc(C)c(-n2ccn3nc(-c4cccnc4)cc23)cc1NC(=O)c1cccc(C(C)(C)C(F)(F)F)c1` [Example 139, N-{2,4-Dimethyl-5-[6-(pyridin-3-yl)-1H-imidazo[1,2-b]pyrazol-1-yl]phenyl}-3-(1,1,1-trifluoro-2-methylpropan-2-yl)benzamide] as the molecule, how does the IC50 read?
Its IC50 is 0.5 nM.

How did the IC50 turn out when `Cc1cc(C)c(-n2ccn3nc(-c4cccnc4)cc23)cc1NC(=O)c1cccc(C2(C)COC2)c1` [Example 140, N-{2,4-Dimethyl-5-[6-(pyridin-3-yl)-1H-imidazo[1,2-b]pyrazol-1-yl]phenyl}-3-(3-methyloxetan-3-yl)benzamide] was run?
Its IC50 is 0.5 nM.

Which IC50 does the source give for `Cc1cc(C)c(-n2ccn3nc(-c4cccnc4)cc23)cc1NC(=O)c1cccc(C(C)(C)O)c1` [Example 141, N-{2,4-Dimethyl-5-[6-(pyridin-3-yl)-1H-imidazo[1,2-b]pyrazol-1-yl]phenyl}-3-(2-hydroxypropan-2-yl)benzamide] here?
The IC50 was 62 nM.

Which IC50 does the source give for `Cc1cc(C)c(-n2ccn3nc(-c4cccnc4)cc23)cc1NC(=O)c1cccc(C(C)(C)F)c1` [Example 142, N-{2,4-Dimethyl-5-[6-(pyridin-3-yl)-1H-imidazo[1,2-b]pyrazol-1-yl]phenyl}-3-(2-fluoropropan-2-yl)benzamide] here?
The IC50 was 0.9 nM.

How did the IC50 turn out when `Cc1cc(C)c(-n2ccn3nc(-c4cccnc4)cc23)cc1NC(=O)c1cc(N2CCCCC2)cc(S(F)(F)(F)(F)F)c1` [Example 143, N-{2,4-Dimethyl-5-[6-(pyridin-3-yl)-1H-imidazo[1,2-b]pyrazol-1-yl]phenyl}-3-(pentafluoro-λ^6-sulphanyl)-5-(piperidin-1-yl)benzamide] was run?
Its IC50 is 1.3 nM.

`Cc1cc(C)c(-n2ccn3nc(-c4cccnc4)cc23)cc1NC(=O)c1cc(N2CCC(C#N)CC2)cc(S(F)(F)(F)(F)F)c1` [Example 144, 3-(4-Cyanopiperidin-1-yl)-N-{2,4-dimethyl-5-[6-(pyridin-3-yl)-1H-imidazo[1,2-b]pyrazol-1-yl]-phenyl}-5-(pentafluoro-λ^6-sulphanyl)benzamide] was tested. Which IC50 did it give?
Its IC50 is 0.6 nM.

`COC1CCN(c2cc(C(=O)Nc3cc(-n4ccn5nc(-c6cccnc6)cc45)c(C)cc3C)cc(S(F)(F)(F)(F)F)c2)CC1` [Example 145, N-{2,4-Dimethyl-5-[6-(pyridin-3-yl)-1H-imidazo[1,2-b]pyrazol-1-yl]phenyl}-3-(4-methoxypiperidin-1-yl)-5-(pentafluoro-λ^6-sulphanyl)benzamide] was tested. Which IC50 did it give?
Its IC50 is 0.9 nM.

For `COC1CN(c2cc(C(=O)Nc3cc(-n4ccn5nc(-c6cccnc6)cc45)c(C)cc3C)cc(S(F)(F)(F)(F)F)c2)C1` [Example 146, N-{2,4-Dimethyl-5-[6-(pyridin-3-yl)-1H-imidazo[1,2-b]pyrazol-1-yl]phenyl}-3-(3-methoxyazetidin-1-yl)-5-(pentafluoro-λ^6-sulphanyl)benzamide], which IC50 is on record?
Its IC50 is 0.7 nM.

For `Cc1cc(C)c(-n2ccn3nc(-c4cccnc4)cc23)cc1NC(=O)c1cc(C#N)cc(S(F)(F)(F)(F)F)c1` [Example 147, 3-Cyano-N-{2,4-dimethyl-5-[6-(pyridin-3-yl)-1H-imidazo[1,2-b]pyrazol-1-yl]phenyl}-5-(pentafluoro-λ^6-sulphanyl)benzamide dihydrochloride], which IC50 is on record?
The IC50 was 0.2 nM.

With `Cc1cc(C)c(-n2ccn3nc(-c4cccnc4)cc23)cc1NC(=O)c1cc(C(C)(C)O)cc(S(F)(F)(F)(F)F)c1` [Example 148, N-{2,4-Dimethyl-5-[6-(pyridin-3-yl)-1H-imidazo[1,2-b]pyrazol-1-yl]phenyl}-3-(2-hydroxypropan-2-yl)-5-(pentafluoro-λ^6-sulphanyl)benzamide] as the molecule, how does the IC50 read?
Its IC50 is 0.4 nM.

From patent US20150005288A1, “SUBSTITUTED PHENYLIMIDAZOPYRAZOLES AND USE THEREOF” (Bayer Intellectual Property GmbH, priority 2012, published 2015)
